± gives the standard deviation of the averaged measurements.
Key:
Test in all cases: relative viability vs DMSO control (72 h) (fraction); higher = more viable cells
G401 = system: G401
Procedure, shortened: (§1)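 Relative viability was measured with ATPLite and expressed as percent growth, averaged across up to triplicate wells. Sarcoma cell lines had been seeded in 384-well plates to reach 80–90% confluence, dosed after 24 h, and incubated 72 h at 37 °C, 5% CO2. All data were rescaled on a scale where 1 is full and 0 is none.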

A204 = system: A204
Procedure, shortened: as §1

SW1353 = system: SW1353
Procedure, shortened: as §1

SK-ES-1 = system: SK-ES-1
Procedure, shortened: as §1

HT1080 = system: HT1080
Procedure, shortened: as §1

SW684 = system: SW684
Procedure, shortened: as §1

SW982 = system: SW982
Procedure, shortened: as §1

SW872 = system: SW872
Procedure, shortened: as §1

RD-ES = system: RD-ES
Procedure, shortened: as §1

KHOS-240S = system: KHOS-240S
Procedure, shortened: as §1

KHOS-NP = system: KHOS-NP
Procedure, shortened: as §1

SYO-1 = system: SYO-1
Procedure, shortened: as §1

CN1CC[C@@H](NC(=O)Nc2ccc(C#N)cc2)C[C@@H]1c1nc2ccccc2[nH]1 [Glasdegib]
Settings	relative viability
A204, 0.00017 µM	1.07 ± 0.036
A204, 0.00051 µM	1.074 ± 0.0036
A204, 0.00152 µM	1.09 ± 0.027
A204, 0.00457 µM	1.06 ± 0.036
A204, 0.01372 µM	1.09 ± 0.025
A204, 0.04115 µM	1.06 ± 0.019
A204, 0.1235 µM	1.064 ± 0.0094
A204, 0.3704 µM	1.05 ± 0.025
A204, 1.111 µM	1.04 ± 0.032
A204, 3.333 µM	1.02 ± 0.052
A204, 10 µM	0.975 ± 0.1
G401, 0.00017 µM	1.04 ± 0.022
G401, 0.00051 µM	1.03 ± 0.028
G401, 0.00152 µM	1.02 ± 0.044
G401, 0.00457 µM	1.02 ± 0.016
G401, 0.01372 µM	1.03 ± 0.04
G401, 0.04115 µM	1.03 ± 0.035
G401, 0.1235 µM	1.02 ± 0.013
G401, 0.3704 µM	0.986 ± 0.028
G401, 1.111 µM	0.997 ± 0.022
G401, 3.333 µM	0.949 ± 0.012
G401, 10 µM	0.934 ± 0.028
HT1080, 0.00017 µM	1.07 ± 0.034
HT1080, 0.00051 µM	1.091 ± 0.003
HT1080, 0.00152 µM	1.112 ± 0.0024
HT1080, 0.00457 µM	1.09 ± 0.038
HT1080, 0.01372 µM	1.09 ± 0.026
HT1080, 0.04115 µM	1.112 ± 0.0081
HT1080, 0.1235 µM	1.1 ± 0.018
HT1080, 0.3704 µM	1.087 ± 0.0067
HT1080, 1.111 µM	1.07 ± 0.041
HT1080, 3.333 µM	1.054 ± 0.0082
HT1080, 10 µM	1.01 ± 0.053
KHOS-240S, 0.00017 µM	1.04 ± 0.028
KHOS-240S, 0.00051 µM	1.061 ± 0.0035
KHOS-240S, 0.00152 µM	1.08 ± 0.015
KHOS-240S, 0.00457 µM	1.08 ± 0.042
KHOS-240S, 0.01372 µM	1.06 ± 0.05
KHOS-240S, 0.04115 µM	1.06 ± 0.018
KHOS-240S, 0.1235 µM	1.05 ± 0.019
KHOS-240S, 0.3704 µM	1.065 ± 0.0064
KHOS-240S, 1.111 µM	1.05 ± 0.015
KHOS-240S, 3.333 µM	1.05 ± 0.017
KHOS-240S, 10 µM	1.03 ± 0.043
KHOS-NP, 0.00017 µM	1.09 ± 0.035
KHOS-NP, 0.00051 µM	1.1 ± 0.033
KHOS-NP, 0.00152 µM	1.1 ± 0.037
KHOS-NP, 0.00457 µM	1.11 ± 0.044
KHOS-NP, 0.01372 µM	0.779 ± 0.59
KHOS-NP, 0.04115 µM	1.1 ± 0.025
KHOS-NP, 0.1235 µM	1.108 ± 0.011
KHOS-NP, 0.3704 µM	1.12 ± 0.013
KHOS-NP, 1.111 µM	1.11 ± 0.014
KHOS-NP, 3.333 µM	1.085 ± 0.01
KHOS-NP, 10 µM	1.02 ± 0.028
RD-ES, 0.00017 µM	0.9823 ± 0.0076
RD-ES, 0.00051 µM	0.963 ± 0.028
RD-ES, 0.00152 µM	0.9569 ± 0.0078
RD-ES, 0.00457 µM	0.968 ± 0.028
RD-ES, 0.01372 µM	0.96 ± 0.025
RD-ES, 0.04115 µM	0.923 ± 0.013
RD-ES, 0.1235 µM	0.924 ± 0.017
RD-ES, 0.3704 µM	0.926 ± 0.025
RD-ES, 1.111 µM	0.924 ± 0.046
RD-ES, 3.333 µM	0.934 ± 0.059
RD-ES, 10 µM	0.891 ± 0.059
SK-ES-1, 0.00017 µM	1 ± 0.042
SK-ES-1, 0.00051 µM	1.03 ± 0.049
SK-ES-1, 0.00152 µM	1 ± 0.021
SK-ES-1, 0.00457 µM	1.02 ± 0.018
SK-ES-1, 0.01372 µM	1.01 ± 0.062
SK-ES-1, 0.04115 µM	0.965 ± 0.034
SK-ES-1, 0.1235 µM	0.944 ± 0.086
SK-ES-1, 0.3704 µM	0.975 ± 0.046
SK-ES-1, 1.111 µM	0.944 ± 0.057
SK-ES-1, 3.333 µM	0.77 ± 0.025
SK-ES-1, 10 µM	0.696 ± 0.024
SW684, 0.00017 µM	1.165 ± 0.0075
SW684, 0.00051 µM	1.14 ± 0.024
SW684, 0.00152 µM	1.19 ± 0.047
SW684, 0.00457 µM	1.15 ± 0.038
SW684, 0.01372 µM	1.16 ± 0.025
SW684, 0.04115 µM	1.177 ± 0.0099
SW684, 0.1235 µM	1.12 ± 0.079
SW684, 0.3704 µM	1.2 ± 0.02
SW684, 1.111 µM	1.12 ± 0.048
SW684, 3.333 µM	1.12 ± 0.064
SW684, 10 µM	1.12 ± 0.053
SW872, 0.00017 µM	1.08 ± 0.014
SW872, 0.00051 µM	1.07 ± 0.041
SW872, 0.00152 µM	1.08 ± 0.035
SW872, 0.00457 µM	1.06 ± 0.035
SW872, 0.01372 µM	1.06 ± 0.027
SW872, 0.04115 µM	1.05 ± 0.029
SW872, 0.1235 µM	1.06 ± 0.024
SW872, 0.3704 µM	1.066 ± 0.0044
SW872, 1.111 µM	1.05 ± 0.032
SW872, 3.333 µM	1.06 ± 0.015
SW872, 10 µM	1.06 ± 0.013
SW982, 0.00017 µM	0.988 ± 0.014
SW982, 0.00051 µM	0.993 ± 0.022
SW982, 0.00152 µM	1 ± 0.017
SW982, 0.00457 µM	1.03 ± 0.024
SW982, 0.01372 µM	1 ± 0.01
SW982, 0.04115 µM	0.971 ± 0.07
SW982, 0.1235 µM	1.004 ± 0.0054
SW982, 0.3704 µM	0.985 ± 0.025
SW982, 1.111 µM	1.02 ± 0.022
SW982, 3.333 µM	1.02 ± 0.015
SW982, 10 µM	0.992 ± 0.04
SW1353, 0.00017 µM	1.1 ± 0.013
SW1353, 0.00051 µM	1.1 ± 0.015
SW1353, 0.00152 µM	1.08 ± 0.037
SW1353, 0.00457 µM	1.1 ± 0.031
SW1353, 0.01372 µM	1.09 ± 0.038
SW1353, 0.04115 µM	1.07 ± 0.015
SW1353, 0.1235 µM	1.07 ± 0.018
SW1353, 0.3704 µM	1.07 ± 0.028
SW1353, 1.111 µM	1.1 ± 0.025
SW1353, 3.333 µM	1.09 ± 0.029
SW1353, 10 µM	1.04 ± 0.024
SYO-1, 0.00017 µM	1.032 ± 0.0056
SYO-1, 0.00051 µM	1.01 ± 0.031
SYO-1, 0.00152 µM	1.01 ± 0.025
SYO-1, 0.00457 µM	0.99 ± 0.031
SYO-1, 0.01372 µM	0.973 ± 0.043
SYO-1, 0.04115 µM	0.976 ± 0.043
SYO-1, 0.1235 µM	0.991 ± 0.043
SYO-1, 0.3704 µM	1 ± 0.035
SYO-1, 1.111 µM	0.999 ± 0.05
SYO-1, 3.333 µM	0.975 ± 0.043
SYO-1, 10 µM	0.981 ± 0.072

Source: the supplement of paper PMC10883282
